“Also recorded” adds a separate entry of the source.
Experiments:
Assay type in all cases: cell-based
HEK293 cells = experiment: MTT (cell proliferation) assay; conditions: up to 10 μM, 18 h
Method: MTT assay was performed using MTT Cell Count Kit (Nacalai Tesque). HEK293 cells were trypsinized, diluted to 2.4×10^5 cells ml^−1 and 100 μl per well were seeded onto a 96-well plate. The cells were cultured for 24 h at 37° C. under 5% CO2. The medium was replaced with fresh medium (DMEM-FBS with 0.1% (v/v) DMSO) with 0, 2, 5, or 10 μM of ASP2905 or ASP7967. The cells were cultured for additional 18 h at 37° C. under 5% CO2. Subsequently, 10 μl of MTT solution was added to each well, and the cells were incubated for 3 h at 37° C. under 5% CO2. Next, 100 μl of the Solubilization Solution was added to each well. To dissolve the precipitated formazan, the plate was incubated for 2 h at 37° C. Absorbance at 570 nm (reference wavelength: 700 nm) was measured by Infinite M1000 PRO microplate reader (Tecan). The reported values are averages of four replicate wells. The assay was repeated three times to ensure reproducibility.

[1] = system: a8-AC17-4-CPP riboswitch (EGFP expression in HEK293 cells); experiment: Riboswitch assay in HEK293 cells, a8-AC17-4-CPP, ligand response; conditions: for fold induction at 5 µM: 48 h, 5 μM ligand, HEK293 cells, read-out: activation of EGFP / gene expression (ON/OFF)
Method: (§1) HEK293 cells were cultured in Dulbecco's modified Eagle's medium (DMEM) supplemented with 10% heat-inactivated FBS (Gibco) containing 2 mM L-glutamine and 100 units ml^−1 of penicillin-streptomycin (DMEM-FBS). Cells were kept in a 37° C. incubator with 5% CO2 and passaged regularly upon reaching 90% confluency. Approximately 20 h prior to transfection, the cells were trypsinized, diluted to ~2.7×10^5 cells ml^−1 and 100 μl per well were seeded onto a 96-well plate. Cells in each well were cotransfected with 100 ng of the EGFP-aptazyme plasmid and 20 ng of pCMV-mCherry^27 (transfection control) using 0.3 μl of TransIT-293 Transfection Reagent (Mirus) according to the manufacturer's instructions. Five hours after transfection, the medium in each well was replaced with fresh medium with (up to 5 μM) or without ASP2905 or ASP7967. The aptamer ligands were dissolved at 1000× concentration in DMSO. Forty-eight hours after transfection, the medium in each well was replaced with 100 μl of phosphate buffered saline (PBS), and fluorescence intensity was measured by Infinite M1000 PRO microplate reader (Tecan). Fluorescence intensity was measured at 484 nm excitation/510 nm emission/5 nm bandwidth for EGFP, and at 587 nm excitation/610 nm emission/10 nm bandwidth for mCherry. Background fluorescence measured using untransfected cells was subtracted from the EGFP and mCherry fluorescence values. Then, EGFP fluorescence was normalized by mCherry fluorescence to account for variations in transfection efficiency and cell counts. All reported values are averages of three replicate wells.
The anti-Rz sequence was varied from 6 to 10 nucleotides, and the aptazyme was inserted in the 3′ UTR of the EGFP transcript.
The EGFP-riboswitch plasmid and an mCherry-expressing plasmid (transfection control) were cotransfected into HEK293 cells in the absence or presence (5 μM) of ASP2905 or ASP7967. EGFP and mCherry fluorescence was measured two days after transfection, and EGFP fluorescence was normalized by mCherry fluorescence to account for variability in transfection efficiency. […] We attribute this to the coincidental complementarity of the nucleotides preceding anti-Rz (CA) to the ribozyme sequence, making the effective anti-Rz sequence length longer than intended.
The riboswitch a8-AC17-4-CPP was further analyzed for the dose dependent response to ASP7967 (FIG. 6d).

[2] = system: aptazyme-based riboswitches (AC17-4); experiment: cells; conditions: Homo sapiens, 48 h; ligand as low as 5 μM in culture medium, HEK293 cells; read-out: activation of gene expression
Method: as §1, with “Five hours after transfection, the medium in each well was replaced with fresh medium with (up to 5 μM) or without ASP2905 or ASP7967. The aptamer ligands were dissolved at 1000× concentration in DMSO.” left out, “All reported values are averages of three replicate wells.” left out

| SMILES | effect on cell proliferation / cellular toxicity (HEK293 cells) | ASP7967 concentration at which riboswitch response mostly saturated [1] [µM] | fold induction at 5 µM ([1]; Homo sapiens) | EC50 ([1]; Homo sapiens, HEK293, dose dependent response) [nM] | fold induction at 5 µM [2] | effect on cell proliferation / cellular toxicity (HEK293 cells; listed as ASP2095) |
| --- | --- | --- | --- | --- | --- | --- |
| Fc1ccc(Nc2nc(NCc3ncccn3)nc(Nc3ccc(F)cc3)n2)cc1 [ASP7967] | not significantly affected; also recorded: No cellular toxicity up to 10 μM was observed; also recorded: not cytotoxic | 5 | ~10 | ~1100 | > 10 | – |
| Fc1ccc(Nc2nc(NCc3ncccn3)nc(Nc3ccccc3)n2)cc1 [ASP2905, reference compound] | not significantly affected | – | ~10 | – | > 10 | No cellular toxicity up to 10 μM was observed; also recorded: not cytotoxic |

From US20260327628A1, “AN RNA APTAMER THAT BINDS TO ASP7967 OR AN ANALOGUE THEREOF” (priority 2022, published 2026)
